Data set [1] deals with T1, wtKIT (Homo sapiens, UniProt P10721).
T1 construct: 1888289AM in the reaction mixtures
The data set is described as follows: HTRF biochemical assay, wtKIT (phosphorylation of a peptide substrate). To be noted: Table 4. Put shortly:
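HTRF read-out of FAM-peptide (1 µM) phosphorylation after anti-phosphotyrosine antibody addition and EDTA quench. Reaction: 5.0 nM wtKIT, 400 µM ATP, 10 mM Mn2+, HEPES pH 7.5, 1% DMSO, 3 h, 25 °C; optional enzyme-compound preincubation; enzyme level set for 10-20% conversion.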

For data set [2], the target named is T2, CSF-1R (Homo sapiens, UniProt P07333).
T2 construct: purchased Invitrogen PV3249 (lot 662393N)
T2 sequence (P07333 20-972): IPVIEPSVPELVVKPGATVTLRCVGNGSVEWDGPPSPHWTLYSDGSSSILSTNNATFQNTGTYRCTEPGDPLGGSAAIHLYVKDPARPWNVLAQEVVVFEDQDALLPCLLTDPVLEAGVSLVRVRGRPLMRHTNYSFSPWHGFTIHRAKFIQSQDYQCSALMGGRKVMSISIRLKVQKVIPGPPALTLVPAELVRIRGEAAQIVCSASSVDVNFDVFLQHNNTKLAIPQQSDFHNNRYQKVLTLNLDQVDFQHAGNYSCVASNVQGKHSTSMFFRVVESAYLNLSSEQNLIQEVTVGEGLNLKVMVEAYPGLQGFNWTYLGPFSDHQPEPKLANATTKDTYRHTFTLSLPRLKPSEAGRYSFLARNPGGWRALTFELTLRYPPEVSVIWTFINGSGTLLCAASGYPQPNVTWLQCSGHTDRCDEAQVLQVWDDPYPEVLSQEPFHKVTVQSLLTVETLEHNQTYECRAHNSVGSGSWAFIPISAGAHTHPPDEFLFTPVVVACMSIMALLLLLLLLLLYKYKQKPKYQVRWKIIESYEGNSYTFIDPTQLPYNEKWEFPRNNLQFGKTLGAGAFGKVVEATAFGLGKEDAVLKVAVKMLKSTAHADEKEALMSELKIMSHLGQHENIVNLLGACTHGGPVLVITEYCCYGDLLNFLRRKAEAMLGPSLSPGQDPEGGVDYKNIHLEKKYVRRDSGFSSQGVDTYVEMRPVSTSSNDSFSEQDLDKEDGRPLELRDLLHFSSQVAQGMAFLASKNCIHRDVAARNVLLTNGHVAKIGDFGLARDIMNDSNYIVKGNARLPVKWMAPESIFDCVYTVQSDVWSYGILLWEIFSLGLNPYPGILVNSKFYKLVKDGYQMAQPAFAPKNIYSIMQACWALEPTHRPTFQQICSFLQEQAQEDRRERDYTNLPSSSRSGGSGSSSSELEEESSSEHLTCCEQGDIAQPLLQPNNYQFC
The data set can be described thus: HTRF biochemical assay, CSF-1R. As to conditions: Table 4. Put shortly:
(§1)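 Kinase phosphorylation of a FAM-labelled peptide substrate, with ATP and Mn^2+ cofactors, run for 3 h at 25 °C, with optional enzyme–compound pre-incubation. Reactions were quenched with EDTA, and phosphopeptide was detected by anti-phosphotyrosine antibody HTRF.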
(In general: TR-FRET usually uses a lanthanide donor and a delayed reading to cut background.)

Data set [3] addresses T3, PDGFRα (Homo sapiens, UniProt P16234).
T3 construct: purchased Millipore 14-467 (lot 26321_ACTI)
The data set is described as follows: HTRF biochemical assay, PDGFRα. To be noted: Table 4, read-out: PDFGRα Biochemical IC50 avg. Put shortly:
as §1

In data set [4] the test system is KIT phosphorylation in M-07e cells. The data set can be described thus: Cell-based KIT phosphorylation in M-07e cells by pKIT ELISA. The arrangement: species or system human. As to conditions: SCF stimulation. Put shortly: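 Serum-starved M-07e cells (1 × 10^6/mL, overnight) were treated with compounds (8-point 3-fold series from 1 uM) for 2 h at 37 °C, then stimulated with 100 ng/mL SCF for 5 min. Lysate phospho-KIT was captured on anti-phospho-CD117 plates, detected with anti-pY-HRP, and read at 450 nm against a pc-KIT standard curve.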

A short description of data set [5]: Kinetic solubility assay. It is filed as physicochemical. As to conditions: kinetic solubility, 50 mM PB (pH 7.4), shaken 24 hours at RT. Put shortly:
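Concentration in the filtrate was determined by UPLC-UV or HPLC-UV with a standard curve. Before that, compound (10 mM DMSO stock) in 50 mM PB at pH 7.4 was agitated 24 h at room temperature, then PTFE-filtered with centrifugation.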

In data set [6] the target is T4, KIT-NanoLuc fusion in HEK293 cells (Homo sapiens, UniProt P10721).
T4 construct: expressed in transfected cells; host or cells: HEK293, transient transfection
T4 sequence (P10721 26-976): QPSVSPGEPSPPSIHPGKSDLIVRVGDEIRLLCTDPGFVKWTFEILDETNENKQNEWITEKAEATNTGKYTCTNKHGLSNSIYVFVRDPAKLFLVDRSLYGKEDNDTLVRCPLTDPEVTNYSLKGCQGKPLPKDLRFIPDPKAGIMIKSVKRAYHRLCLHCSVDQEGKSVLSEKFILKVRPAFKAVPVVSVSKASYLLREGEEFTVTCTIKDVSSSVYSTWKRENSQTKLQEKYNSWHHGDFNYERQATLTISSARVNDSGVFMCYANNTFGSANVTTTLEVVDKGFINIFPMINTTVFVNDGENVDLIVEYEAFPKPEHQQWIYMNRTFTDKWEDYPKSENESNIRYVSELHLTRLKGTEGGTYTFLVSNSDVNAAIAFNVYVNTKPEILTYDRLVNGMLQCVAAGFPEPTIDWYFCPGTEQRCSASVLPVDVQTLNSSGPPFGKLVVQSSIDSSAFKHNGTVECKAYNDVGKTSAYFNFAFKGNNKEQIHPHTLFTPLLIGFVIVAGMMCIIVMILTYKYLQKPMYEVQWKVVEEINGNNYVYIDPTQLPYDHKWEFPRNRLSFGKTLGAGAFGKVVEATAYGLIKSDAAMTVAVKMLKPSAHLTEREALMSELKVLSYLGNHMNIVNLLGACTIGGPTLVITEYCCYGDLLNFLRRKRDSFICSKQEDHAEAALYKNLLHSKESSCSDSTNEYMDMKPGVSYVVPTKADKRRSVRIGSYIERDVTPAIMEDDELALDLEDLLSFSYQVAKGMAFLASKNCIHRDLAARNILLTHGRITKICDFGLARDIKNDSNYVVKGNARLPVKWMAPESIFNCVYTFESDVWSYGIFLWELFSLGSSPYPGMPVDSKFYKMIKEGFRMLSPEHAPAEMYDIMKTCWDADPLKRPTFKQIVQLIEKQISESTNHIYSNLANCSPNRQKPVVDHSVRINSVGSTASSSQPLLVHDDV
The data set is described as follows: NanoBRET cellular target engagement assay, KIT. Type of data set: cell-based. The method, then:
Exemplary compounds were tested for their ability to inhibit target engagement of KIT or CSF-1R kinases through competitive displacement of a Nano-Luc luciferase kinase fusion in HEK293 cells.
The NanoBRET target engagement assay employs an energy transfer technique designed to measure molecular proximity in living cells. The assay measures the apparent affinity of test compounds by competitive displacement of the NanoBRET tracer, reversibly bound to a NanoLuc luciferase-kinase fusion construct in cells. The intracellular binding affinity and selectivity are physiologically relevant and fundamental to the pharmacological mechanism of the compounds. While biochemical and biophysical assays identify the kinase inhibitors in vitro, the NanoBRET target engagement assay serves to determine the direct interaction of the compounds binding to target kinases in cells.
HEK293 cells transiently expressing NanoLuc-DDR1 fusion vector were seeded into 384-well plates and treated with the Tracer K-4 and compound for 1 hour. The BRET signal was measured on an EnVision 2104 multilabel microplate reader. NanoBRET Target Engagement Assay in HEK293 cells transiently transfected with KIT and CSF1R-NanoLuc Fusion Vector. HEK293 cells were transfected with […] KIT or CSF1R-NanoLuc Fusion Vector and […] carrier DNA. The transfected cells were treated with test compounds (starting at 10 μM, 10-dose with 3-fold dilution) and reference compound (desatinib) (starting at 1 μM, 10-dose with 3-fold dilution). Percent inhibition due to compound activity was calculated to determine IC50.
A general note: BRET reads energy transfer from a luciferase to a nearby fluorophore.

Data set [7] is described as follows: Three time point assay for plasma, brain and testes distribution after oral dosing. Type of data set: in vivo, rat. To be noted: rat, oral dosing. How it is done: Exemplary compounds were tested for distribution in plasma, brain and testes tissue following oral dosing of the compounds in rats. Procedures and results are described below.
Male SD Rats were group-housed (up to four animals/sex/cage) in polysulfone cages with certified aspen wood bedding during acclimation and study period.
Certified rodent diet and water was provided to all animals ad libitum, unless fasting for study procedures.
Appropriate amount of test article was accurately weighed and mixed with an appropriate volume of vehicle to get a clear solution or a uniform suspension; vortexing or sonication in water bath may also be need. Animals were dosed within four hours after the formulation is prepared.
For PO dosing, the dose formulation was administered via oral gavage following facility SOPs. The dose volume was determined by the animals' body weight collected on the morning of dosing day. The dose was 10 mg/kg.
Each blood collection (about 1 mL per time point at one or more of 0.5 h, 2 h, 3 h, 5.3 h, and 7 h) was performed from jugular vein or other suitable site of each animal into pre-chilled commercial EDTA-K2 tubes and placed on wet ice until centrifugation.
Blood samples were processed for plasma by centrifugation at approximately 4° C., 3,200 g for 10 min. Plasma was collected respectively and transferred into pre-labeled 96 well plate or polypropylene tubes, quick frozen over dry ice and kept at −60° C. or lower until LC-MS/MS analysis.
Rat brain was perfused with PBS to remove blood before harvest.
After perfusion, brain and testis were homogenized using homogenizing buffer (15 mM PBS (pH7.4):MeOH=2:1) at the ratio of 1:9 (1 g tissue with 9 mL buffer, the dilution ratio is 10). The brain homogenate was kept at −60° C. or lower until LC-MS/MS analysis. General sample processing procedure (brain homogenate & testis homogenate) using 96-well plate: • 1). An aliquot of 40 μL unknown sample, calibration standard, quality control and dilution quality control (if have), single blank, and double blank sample was added to the 96-well plate respectively; • 2). Each sample (except the double blank) was quenched with 400 μL of IS1 respectively (double blank sample was quenched with 400 μL of I), and then the mixture was vortex-mixed for 10 min at 800 rpm and centrifuged for 15 min at 3220×g, 4° C.; • 3). An aliquot of 50 μL supernatant was transferred to another clean 96-well plate and centrifuged for 5 min at 3220×g, 4° C., then the supernatant was directly injected for LC-MS/MS analysis.
• 1. A LC-MS/MS method for the quantitative determination of test compound in biological matrix was developed under Non-GLP compliance. • 2. A calibration curve with at least 6 non-zero calibration standards was applied for the method including LLOQ. • 3. A set of QCs consisting of low, middle, and high concentrations were applied for the method. • 4. N in 1 cassette LC-MS/MS method was developed for samples coming from different studies and the interference among all cassette analytes was evaluated during the method development. • 5. Cassette administration assay was performed if the mass difference (Δmass) among different analytes was more than 4 Da. In this case, interference evaluation was not necessary.
• 1. If sample number within a batch was ≤12, at least one set of standard curve separated with two parts through begin and end of the sequence, was included in the run, and QCs were not required. The recommended injection order was C8, C6, C4, C2, study samples, C7, C5, C3, C1. • 2. If sample number within a batch was >12, one standard curve and two sets of QCs with low, middle and high concentrations were applied for bioanalysis. Meanwhile, QCs number should be more than 5% of study sample number. • 3. Samples with the same types of matrix in different studies were quantified in one analysis run by using the developed N in 1 cassette LC-MS/MS method. • 4. […]

Data set [8] concerns CYP3A4. The data set can be described thus: Hepatocyte CYP induction assay, CYP3A4 gene expression. Type of data set: in vitro ADME. As to conditions: human hepatocytes. The method, then:
Exemplary compounds were tested for ability to induce CYP3A4 and/or CYP1A2 in hepatocytes. Procedures and results are described below.
Cryopreserved human hepatocytes were purchased from BioIVT (Baltimore, MD, USA), and they were stored in liquid nitrogen before using. The detailed information of hepatocytes is as follows:
Fresh dosing solutions of test compounds, and Rifampicin were prepared in the incubation medium on the day of dosing.
Cryopreserved hepatocytes were thawed and counted to determine yield, viability was measured. Hepatocytes at the concentrations of 0.7 million/mL were transferred to collagen-coated 96-well plates for attachment (0.1 mL viable cells/well). After allowing 4 to 5 hours for attachment of cells, the plating medium was replaced with Incubation Medium containing 2% (v/v) Matrigel™ (sandwich medium) and the hepatocytes were incubated until use.
All incubations were conducted at 37° C., 5% CO2, and saturated humidity.
The sandwich medium was removed and the hepatocytes were treated with incubation solutions containing test articles in vehicle (0.1% DMSO), or positive control for 24 hours after the cultures were established. The incubation solution was aspirated and replaced with incubation solution containing the same concentrations of test articles, vehicle, or positive controls for an additional 24 hours. The total treatment period was 48 hours. Triplicate were used for each concentration of test compound and positive control.
After treatment period of 48 hours, the incubation solution was aspirated. Hepatocytes were washed once with pre-warmed HBSS and incubated with 140 μL of RLT (lysis buffer from Rneasy 96 Kit) supplemented with 1% β-mercaptoethanol. Plates were then stored at ≤−60° C. freezer until RNA analysis.
Before RNA extraction, the frozen plate was thawed and cell lysates were transferred to 96-well plates. RNA isolation was performed using QIAcube HT System. RNA concentration was measured with NanoDrop ND-2000 spectrophotometer. The purity of RNA preparation was calculated by the ratio of the OD260 nm/OD280 nm and the acceptable range is between 1.8 and 2.2. Reverse transcription was performed to obtain cDNA. Quantification of the selective genes by real time quantitative Polymerase Chain Reaction (qPCR) was performed with TaqMan universal PCR Master Mix on the BIO-RAD CFX 384 Touch Real Time PCR System. The following setting were used: 50° C. for 2 minutes, 95° C. for 10 minutes, 40 cycles of 95° C. for 15 seconds and 60° C. for 1 minute. 18S rRNA was used as the internal standard.
To account for variation in RNA yields and reverse transcription polymerase chain reaction (RT-PCR), the gene of interest in all samples was normalized to an internal control gene (18S ribosomal RNA) (Cttarget gene−Ct18S=ΔCt).
The relative quantitation or change in mRNA level of selected genes induced by each test compound was expressed in relation to the vehicle control sample (Δctcompound−ΔCtvehicle=ΔΔCt). Fold changes in gene expression were determined by taking 2 to the power of this value (2^−ΔΔt).
% of positive control [(fold change in treated sample)−1]/[(fold change in positive control)−1]×100

Data set [9] deals with T1, wtKIT. The data set is described as follows: Caliper biochemical assay, wtKIT. As to conditions: Table 6, read-out: KIT Biochemical IC50 avg. Put shortly:
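Mobility-shift read-out: after EDTA stop, fluorescent peptide substrate and product resolved electrophoretically on LabChip 3000. Reaction ran 3 h at 25° C with 400 μM ATP, Mn^2+ cofactor, 5.0 nM wtKIT, 1 μM FAM-peptide, pH 7.5 HEPES buffer; no-enzyme wells defined full inhibition.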

Data set [10] concerns the target T2, CSF-1R. The data set can be described thus: Caliper biochemical assay, CSF-1R. To be noted: Table 6. Put shortly:
(§2)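 Mobility-shift readout: after EDTA quench, fluorescent peptide and product are resolved electrophoretically on a LabChip and measured by fluorescence. Reactions contain enzyme, carboxyfluorescein peptide, ATP, Mn^2+ and compound, run 3 h at 25° C; 100% inhibition control lacks enzyme.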

The target of data set [11] is T3, PDGFRα. The data set is described as follows: Caliper biochemical assay, PDGFRα. To be noted: Table 6. Put shortly: as §2

Some results are limits rather than exact numbers.

T3 sequence (P16234 24-1089): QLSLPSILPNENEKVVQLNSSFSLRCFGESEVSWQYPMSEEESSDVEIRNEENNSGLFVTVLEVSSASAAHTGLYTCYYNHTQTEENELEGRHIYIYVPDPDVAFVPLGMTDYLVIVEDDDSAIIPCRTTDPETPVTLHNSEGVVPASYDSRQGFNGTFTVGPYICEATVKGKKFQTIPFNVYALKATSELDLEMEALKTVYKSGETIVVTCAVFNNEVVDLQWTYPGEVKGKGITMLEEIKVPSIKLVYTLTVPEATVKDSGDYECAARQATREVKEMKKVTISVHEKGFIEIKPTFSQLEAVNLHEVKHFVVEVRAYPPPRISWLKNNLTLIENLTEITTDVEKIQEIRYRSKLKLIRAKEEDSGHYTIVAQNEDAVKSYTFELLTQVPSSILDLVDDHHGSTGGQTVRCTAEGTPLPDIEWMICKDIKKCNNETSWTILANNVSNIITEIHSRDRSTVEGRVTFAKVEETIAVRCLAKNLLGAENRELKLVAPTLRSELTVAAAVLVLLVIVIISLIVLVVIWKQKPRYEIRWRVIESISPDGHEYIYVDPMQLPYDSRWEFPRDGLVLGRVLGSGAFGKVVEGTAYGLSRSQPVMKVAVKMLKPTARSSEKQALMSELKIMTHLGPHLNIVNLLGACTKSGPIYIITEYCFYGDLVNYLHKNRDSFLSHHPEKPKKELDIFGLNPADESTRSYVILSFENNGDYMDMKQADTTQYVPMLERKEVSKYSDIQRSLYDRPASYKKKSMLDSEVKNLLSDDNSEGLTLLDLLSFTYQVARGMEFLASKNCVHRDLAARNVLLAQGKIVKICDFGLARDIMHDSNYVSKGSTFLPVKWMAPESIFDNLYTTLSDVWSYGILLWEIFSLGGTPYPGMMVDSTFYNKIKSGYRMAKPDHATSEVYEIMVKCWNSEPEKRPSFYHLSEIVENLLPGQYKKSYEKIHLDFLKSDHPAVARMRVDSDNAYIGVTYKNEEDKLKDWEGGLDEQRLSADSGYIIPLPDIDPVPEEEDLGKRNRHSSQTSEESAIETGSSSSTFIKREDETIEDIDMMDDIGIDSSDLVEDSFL
T1 sequence (P10721 26-976): as the sequence (P10721 26-976) above

Turning to `Cc1nc(-c2ccc(C)c(NC(=O)c3cnc4cc(COCCO)ccn34)c2)no1` [Compound I-110], the IC50 in data set [1] is at most 50 nM; in data set [2], 500 to 5000 nM; in data set [3] it was 500 to 5000 nM; in data set [4], 50 to 500 nM; in data set [6], at most 100 nM. The “Solubility (μM)” value in [5] was “* (a solubility greater than 50 μM)”.

As for `COc1ccn2c(C(=O)Nc3cc(-c4noc(CC(O)C(F)F)n4)ccc3C)cnc2c1` (single isomer, unassigned) [Compound I-40], in [7] (time point 0.5 h), the Brain concentration amounted to 63.2 ng/g, the Kp brain/plasma came out at 0.09, the Kp testes/plasma was found to be 0.17 and the Plasma concentration was determined as 712 ng/mL. For the same compound, in [7] (time point 0.5 h), the Testes concentration came to 123 ng/g. Moreover, in data set [7] (time point 2 h), the Brain concentration amounted to 144 ng/g, the Kp brain/plasma is 0.08, the Kp testes/plasma is 0.32 and the Plasma concentration is 1770 ng/mL. This compound also showed a Testes concentration in [7] (time point 2 h) of 568 ng/g. In data set [7] (time point 7 h), this compound showed a Brain concentration of 65.4 ng/g, a Kp brain/plasma of 0.09, a Kp testes/plasma of 0.41 and a Plasma concentration of 764 ng/mL. In data set [7] (time point 7 h), the Testes concentration was found to be 300 ng/g. In data set [8] (donor five), the “CYP 3A4 induction mRNA: Mean fold at 10 μM” value was “++ (induction fold of greater than 2-fold to less than or equal to 3-fold)”. Moreover, the “CYP 3A4 induction mRNA: Mean fold at 10 μM” value in [8] (donor one) is listed as “+++ (induction fold of greater than 3-fold to less than or equal to 10-fold)”. Moreover, the “Solubility (μM)” value in data set [5] is listed as “**** (a solubility less than or equal to 2 μM)”.

`CCc1nc(-c2ccc(C)c(NC(=O)c3cnc4ccccn34)c2)no1` [Compound I-283]: the half-inhibitory concentration (IC50) in [9] was at most 50 nM; in data set [10], at most 50 nM; in data set [11], 5000 to 30000 nM. Besides, the “CYP 3A4 induction mRNA: Mean fold at 10 μM” value in data set [8] (donor two) is recorded as “++++ (induction fold of greater than 10-fold)”. For the same compound, the “Solubility (μM)” value in data set [5] is “** (a solubility greater than 10 μM and less than or equal to 50 μM)”.

In general, IC50 refers to the concentration needed to halve the response being measured.
